Measured values published in patent US20240319207A1, “METHOD FOR IDENTIFYING T-CELL EPITOPE SEQUENCE, AND APPLICATION OF SAME” (priority 2021, published 2024).

Tests used:
[1] = system: human peripheral blood monocyte cells, second type (HLA-DRB1*13:01, 14:06); test: ELISPOT assay for interleukin-4, cell 2; type: cell-based; details: 4×10^5 cells per well, peptide 10 μg/ml, 48 hours, after 13 days culture with peptide 1 μg/ml and IL-2
Protocol: (§1) There was performed an assay for specifying a peptide that could actually be an antigen from the peptide candidate list obtained up to Example 8. In this example, it was confirmed whether the sequence of the peptide obtained as described above could function as a T cell epitope. Of the 12 highly versatile epitope candidates obtained above, 8 epitope candidates were subjected to an assay using peptides.
(§2) Human peripheral blood monocyte cells carrying HLA types and showing high binding affinity with 8 peptide sequences in Example 8 were used. Specifically, human peripheral blood monocyte cells carrying the following 2 types of HLA types were purchased from Lonza K.K. (Tokyo, Japan) and used. The HLA types of the first type of human peripheral blood monocyte cells used were HLA-DPA1*01:03, 02:02, HLA-DPB1*04:01, 05:01, HLA-DQA1*01:02, 02:01, HLA-DQB1*03:03, 05:02, and HLA-DRB1*07:01, 15:02. The HLA types of the second type of human peripheral blood monocyte cells were HLA-DPA1*01:03, HLA-DPB1*04:01, 04:02, HLA-DOA1*01:03, 05:05, HLA-DOB1*03:01, 06:03, and HLA-DRB1*13:01,14:06.
(§3) Cells were cultured in the following manner. […]
(§4) ELISPOT assays for interferon-γ and interleukin-4 were conducted. […] The number of spots of the color-developed plate was measured by a contract analysis service of M&S TechnoSystems, Inc. (Osaka, Japan).

[2] = system: human peripheral blood monocyte cells, first type (HLA-DRB1*07:01, 15:02); test: ELISPOT assay for interleukin-4, cell 1; type: cell-based; details: 4×10^5 cells per well, peptide 10 μg/ml, 48 hours, after 13 days culture with peptide 1 μg/ml and IL-2
Protocol: as §1, §2, §3, §4

T cells = details: peptide sequence including the TREM sequence (from TCRβ repertoire, Table 12 no) activates T cells to induce interferon-γ; cited from earlier work

Row | Substance | ELISPOT IL-4 cell 2 (number of spots) [1] | ELISPOT IL-4 cell 1 (number of spots) [2] | IFN-g release (T cells)
1 | 7 (QDEKGVTQNGRLITA; listed as Homo sapiens) [compound 7] | 12 | 6 | –
2 | 15 (LITMDWTWRFLFVVA; listed as Homo sapiens) [compound 15] | – | – | Positive
